Assay results published in patent US20250084138A1, “POLYPEPTIDE HAVING EFFECT OF INHIBITING PROLIFERATION OF LEUKEMIA CELLS” (NANJING FENGRUI BIOTECHNOLOGY CO., LTD, priority 2019, published 2025).
Peptide text beside a SMILES is read from it. * marks the point of attachment. Myristoyl = CCCCCCCCCCCCCC(=O)*

Legend:
[1] = system: Baf-3 cells of normal mouse hematopoietic cells (mIL-3 dependent); conditions: Baf-3 normal mouse hematopoietic cells
[2] = system: K562 cells of human chronic myeloid leukemia cell line (CML); test: K562 cells co-incubated with the polypeptide, cell counting; format: cell-based
Procedure: (§1) The selected experimental cells were: • K562 cells of human chronic myeloid leukemia cell line (CML); • Jurkat cells of acute T lymphocyte leukemia cell line (T-ALL); • THP-1 cells of acute myeloid leukemia cell line (AML); • Baf-3 cells of normal mouse hematopoietic cells (mIL-3 dependent).
(§2) This experiment was grouped into a normal control group, a polypeptide control group, and an experimental polypeptide group.
(§3) Firstly, the polypeptide of the present disclosure was co-incubated with 5*103 (marked as the third power of 10) leukemia tumor cells for 38 h, and the proliferation speed of the cells was detected by two methods of detecting proliferation of the cells (CCK-8) and cell counting, so as to observe the inhibitory effect of the polypeptide on the tumor cells.
(§4) Secondly, the polypeptide was co-incubated with the cells for 24 h, and then collected again, counted, and cultured with drug addition for 38 h, and then detected for the proliferation rate of the cells (CCK-8).
(§5) Each group included one blank (Control), one control peptide (C-p), and three target peptides (P-t, taking an average as the result)

[3] = system: Jurkat cells of acute T lymphocyte leukemia cell line (T-ALL); test: Jurkat cells co-incubated with the polypeptide, cell counting; format: cell-based
Procedure: as §1, §2, §3, §4, §5

[4] = system: Baf-3 cells of normal mouse hematopoietic cells (mIL-3 dependent); test: Baf-3 normal cells co-incubated with the polypeptide, cell counting; format: cell-based
Procedure: as §1, §2, §3, §4
Thirdly, we used normal mouse hematopoietic cells to carry out the same experiment as the above to observe the effect of the polypeptide on normal cells.
as §5

[5] = system: various leukemia cells; test: Overall conclusion on proliferation of the three leukemia cell lines; format: cell-based; conditions: K562, Jurkat, THP-1; positive correlation with dosage and times of administration
Procedure: as §1, §3, §4
The leukemia subtypes represented by the aforementioned three leukemia cells have covered more than 70% of the number of leukemia patients.

[6] = system: THP-1 cells of acute myeloid leukemia cell line (AML); test: Thp-1 cells co-incubated with the polypeptide, cell counting; format: cell-based
Procedure: as §1, §2, §3, §4, §5

What does the source list for `CCCCCCCCCCCCCC(=O)N[C@@H](CCCCN)C(=O)N[C@@H](CCC(=O)O)C(=O)N[C@@H](CO)C(=O)N[C@@H](CCSC)C(=O)N[C@@H](CC(=O)O)C(=O)N[C@@H](C)C(=O)N[C@@H](CC(N)=O)C(=O)N[C@@H](CCCCN)C(=O)N1CCC[C@H]1C(=O)N[C@H](C(=O)N[C@@H](CCCCN)C(=O)N[C@@H](CC(N)=O)C(=O)N[C@@H](CC(C)C)C(=O)N1CCC[C@H]1C(=O)N[C@@H](CC(C)C)C(=O)N[C@@H](CCCCN)C(=O)N[C@@H](CCCCN)C(=O)N[C@H](C(=O)N1CCC[C@H]1C(=O)N[C@@H](CS)C(=O)N[C@@H](CCCCN)C(=O)N[C@H](C(=O)N[C@@H](CO)C(=O)N[C@@H](C)C(=O)N1CCC[C@H]1C(=O)N[C@@H](CO)C(=O)N[C@@H](CCC(N)=O)C(=O)N[C@@H](CO)C(=O)N[C@@H](Cc1ccccc1)C(=O)N[C@@H](Cc1ccccc1)C(=O)N[C@@H](C)C(=O)N[C@@H](CCCNC(=N)N)C(=O)N[C@@H](CC(=O)O)C(=O)N[C@@H](CC(N)=O)C(=O)N[C@H](C(=O)N[C@@H](C)C(=O)N[C@@H](CC(N)=O)C(=O)O)[C@@H](C)O)[C@@H](C)O)[C@@H](C)CC)[C@@H](C)O` [P-t] (Myristoyl-KESMDANKPTKNLPLKKIPCKTSAPSQSFFARDNTAN-OH)?
inhibitory effect on the proliferation of normal cells [1]: no inhibitory effect; Cell count ([2]; K562, 10 uM, 24 + 38 h, first experiment): 66.95%; Cell count ([2]; K562, 10 uM, 38 h, first experiment): 90.22 ± 28.17%; Cell count ([2]; K562, 15 uM, 24 + 38 h, second experiment): 70.09%; Cell count ([2]; K562, 15 uM, 38 h, first experiment): 69.55%; Cell count ([2]; K562, 15 uM, 38 h, second experiment): 80.00%; Cell count ([3]; 10 uM, 38 h, first experiment): 106%; Cell count ([3]; 15 uM, 24 + 38 h, first experiment): 70.09 ± 18.75%; Cell count ([3]; 15 uM, 24 + 38 h, second experiment): 65.12%; Cell count ([3]; 15 uM, 38 h, first experiment): 69.55 ± 8.35 %; Cell count ([3]; 15 uM, 38 h, second experiment): 73.17%; Cell count ([4]; Baf-3, 10 uM, 24 + 38 h, first experiment): 100.11%; Cell count ([4]; Baf-3, 10 uM, 38 h, first experiment): 99.98%; Cell count ([4]; Baf-3, 15 uM, 24 + 38 h, second experiment): 100.83%; Cell count ([4]; Baf-3, 15 uM, 38 h, second experiment): 100.41%; inhibition of the proliferation of various leukemia cells [5]: obviously inhibit; Cell count ([6]; Thp-1, 10 uM, 38 h, first experiment): 80.56%; Cell count ([6]; Thp-1, 15 uM, 24 + 38 h, first experiment): 63.75%; Cell count ([6]; Thp-1, 15 uM, 24 + 38 h, second experiment): 68.22%; Cell count ([6]; Thp-1, 15 uM, 38 h, first experiment): 63.17 ± 2.50%; Cell count ([6]; Thp-1, 15 uM, 38 h, second experiment): 70.09%
